Where two headings read alike, the source gives them in different places.
How the values were obtained:
[1] = Solubility in water and organic solvents; conditions: for solubility in water: result in words
[2] = system: RBL-2H3 cells; assay: Inhibition of 3H-serotonin release induced by ADNP/DNP-HSA immunogenic stimulation in RBL-2H3 cells; assay type: cell-based, rat; conditions: for inhibition at 100 µM: 100 μM (Table 8); for EC50: 15 minutes release period (Table 9); for inhibition at 12.5 µM: RBL-2H3, read-out: 3H-serotonin net release inhibition (%), 12.5 μM; for functional effect following receptor activation (serotonin release): result in words
[3] = dmso, organic solvent or mixture
[4] = ethanol, organic solvent or mixture
[5] = Rattus norvegicus, RBL-2H3, read-out: 3H-serotonin release inhibition %, 0.2% DMSO
[6] = Rattus norvegicus, RBL-2H3, read-out: 3H-serotonin release inhibition %, 1% DMSO
[7] = Rattus norvegicus, RBL-2H3, read-out: EC50, concentration inhibiting by 50% the net release of 3H serotonin, 0.2% DMSO
[8] = Rattus norvegicus, RBL-2H3, read-out: EC50, concentration inhibiting by 50% the net release of 3H serotonin, 1% DMSO
[9] = read-out: ED50, inhibition of 3H-serotonin release, + anandamide (12.5 μM) (Table 5), 15 min
[10] = Rattus norvegicus, RBL-2H3, 0.25 h, read-out: 3H-serotonin net release (%)
[11] = n-octanol, organic solvent or mixture
[12] = Rattus norvegicus, + WIN 55,212-2 (30 μm) (Table 6)
[13] = Rattus norvegicus, - WIN (Table 6)
[14] = Rattus norvegicus, RBL-2H3, 0.25 h, read-out: ED50

| SMILES | solubility [1, 3] [µg/mL] | solubility [1, 4] [µg/mL] | solubility in water [1] | EC50 [2, 7] [µM] | also measured |
| --- | --- | --- | --- | --- | --- |
| CCCCCCCCCCCC(=O)NCCCO [Example 12, N-(3-hydroxypropyl)-lauroylamide] | > 10000 | > 10000 | scarcely soluble | 44 | inhibition at 100 µM [2, 5]: 86%; inhibition at 100 µM [2, 6]: 100%; EC50 [2, 8]: 1.1 µM; IC50 [2, 9]: 29 µM; IC50 ([2]; read-out: ED50, inhibition of 3H-serotonin release, - anandamide (Table 5), 15 min): 1.1 µM |
| CCCCCCCCCCCCCCCCCC(=O)NCc1ccc(O)c(OC)c1 [Example 39, N-(4-hydroxy-3-methoxybenzyl)-stearoylamide] | > 10000 | > 10000 | scarcely soluble | – | activity at 50 µM [2, 10]: 68%; inhibition at 50 µM ([2]; Rattus norvegicus, RBL-2H3, read-out: 3H-serotonin release inhibition %, 0.2% DMSO, 50 μM (Table 8)): 32%; inhibition at 100 µM [2, 6]: 67% |
| O=C(/C=C/CCCCCCCCC(=O)NCCCCO)NCCCCO [Example 17, N,N'-bis(4-hydroxybutyl)-trans-2-dodecendiamide] | > 5000 | – | scarcely soluble | – | – |
| CCCCCCCCCCCC(=O)N[C@@H](C)[C@H](O)c1ccccc1 [Example 8, N-lauroyl-[(1R,2S)-(-)-norephedrine]] | > 10000 | > 10000 | scarcely soluble | 18 | – |
| CCCCCCCCCCCCCCCC(=O)NCCCO [Example 24, N-(3-hydroxypropyl)-palmitamide] | > 3000 | – | scarcely soluble | – | solubility [1, 11]: > 10000 µg/mL; activity at 60 µM ([2]; Rattus norvegicus, RBL-2H3, 0.25 h, 60 μM, 0.1% DMSO and 0.1% ethanol (Table 3), read-out: 3H-serotonin net release (%)): 67%; inhibition at 60 µM ([2]; Rattus norvegicus, RBL-2H3, read-out: 3H-serotonin release inhibition %, 0.2% DMSO, 60 μM (Table 8)): 40%; inhibition at 100 µM [2, 6]: 88%; EC50 [2, 8]: 7.2 µM |
| O=C(/C=C/CCCCCCCCC(=O)N1CCOCC1)N1CCOCC1 [Example 38, 1,10-bis-morpholinylcarbonyl-trans-1-decene] | > 10000 | > 10000 | scarcely soluble | – | – |
| NCCO [ethanolamine, reference compound] | – | – | – | – | inhibition at 12.5 µM [2, 12]: 72%; inhibition at 12.5 µM [2, 13]: 6% |
| CCCCCCCCCCCCCCCCCC(=O)N1CCOCC1 [Example 37, N-stearoyl-morpholine] | – | – | scarcely soluble | – | solubility ([1]; hot ethanol, organic solvent or mixture): > 10000 µg/mL; EC50 [2, 8]: 15 µM |
| CCCCCCCCCCCCCCCC(=O)NC[C@@H](C)O [Example 32, N-palmitoyl-[R(-)-1-amino-2-propanol]] | – | > 5000 | scarcely soluble | 0.73 | – |
| CCCCCCCCCCCCCCCC(=O)NCC(O)c1ccccc1 (stereo not shown) [Example 3, N-(2-hydroxy-2-phenylethyl)-palmitoylamide] | > 10000 | > 10000 | scarcely soluble | 1.2 | inhibition at 100 µM [2, 5]: 100%; inhibition at 100 µM [2, 6]: 100%; EC50 [2, 8]: 4 µM |
| CCCCC/C=C\C/C=C\CCCCCCCC(=O)NCCO [N-(2-hydroxyethyl)-linoleylamide, reference compound] | – | – | – | – | activity at 100 µM [2, 10]: 100% |
| CCCCCCCCCCCCCCCC(=O)N[C@@H](CO)[C@@H](O)c1ccccc1 [Example 4, N-palmitoyl-[(1S,2S)-(+)-2-amino-1-phenyl-1,3-propanediol]] | > 10000 | > 10000 | scarcely soluble | 78 | inhibition at 100 µM [2, 5]: 100%; inhibition at 100 µM [2, 6]: 100%; EC50 [2, 8]: 1.05 µM |
| CCCCCCCCCCCCCCCC(=O)NC(CO)CO [Example 15, 2-(N-palmitoylamino)-1,3-propandiol] | > 5000 | > 5000 | scarcely soluble | – | – |
| CCCCCCCCCCCC(=O)NCCc1ccc(O)cc1 [Example 11, N-(p-hydroxyphenylethyl)-lauroylamide] | > 10000 | > 10000 | scarcely soluble | 26 | – |
| CCCCCCCCCCCCCCCC(=O)N[C@H](C)CO [Example 30, N-palmitoyl-[R(-)-2-amino-1-propanol]] | > 5000 | > 10000 | scarcely soluble | 3.9 | – |
| O=C(/C=C/CCCCCCCCC(=O)NCCCO)NCCCO [Example 13, N,N'-bis(3-hydroxypropyl)-trans-2-dodecenediamide] | > 5000 | – | scarcely soluble | – | inhibition at 200 µM ([2]; Rattus norvegicus, RBL-2H3, read-out: 3H-serotonin release inhibition %, 0.2% DMSO, 200 μM (Table 8)): 65%; EC50 [2, 8]: 32 µM |
| CCCCCCCCCCCCCCCC(=O)NC[C@H](C)O [Example 33, N-palmitoyl-[S(+)-1-amino-2-propanol]] | – | > 5000 | scarcely soluble | 4.7 | – |
| CCCCCCCCCCCC(=O)N1CCOCC1 [Example 36, N-lauroyl-morpholine] | > 10000 | > 10000 | scarcely soluble | – | activity at 100 µM ([2]; Rattus norvegicus, RBL-2H3, 0.25 h, 100 μM, 0.1% DMSO and 0.1% ethanol (Table 3), read-out: 3H-serotonin net release (%)): 51% |
| CCCCCCCCCCCCCCCC(=O)N[C@H](C)[C@@H](O)c1ccccc1 [Example 5, N-palmitoyl-[(1S,2R)-(+)-norephedrine]] | > 10000 | > 10000 | scarcely soluble | 8 | inhibition at 30 µM ([2]; Rattus norvegicus, RBL-2H3, read-out: 3H-serotonin release inhibition %, 0.2% DMSO, 30 μM (Table 8)): 82%; inhibition at 100 µM [2, 6]: 100%; EC50 [2, 8]: 7.6 µM |
| Cc1c(C(=O)c2cccc3ccccc23)c2cccc3c2n1[C@H](CN1CCOCC1)CO3 [WIN 55,212-2, reference compound] | – | – | – | – | 3H-serotonin release inhibition (%) ([2]; 5 μm, (+) N-(2-hydroxyethyl)-palmitoleylamide (Example 19) (Table 7)): 8%; 3H-serotonin release inhibition (%) ([2]; 5 μm, (-) N-(2-hydroxyethyl)-palmitoleylamide (Table 7)): 8%; 3H-serotonin release inhibition (%) ([2]; 10 μm, (+) N-(2-hydroxyethyl)-palmitoleylamide (Example 19) (Table 7)): 10%; 3H-serotonin release inhibition (%) ([2]; 10 μm, (-) N-(2-hydroxyethyl)-palmitoleylamide (Table 7)): 12%; 3H-serotonin release inhibition (%) ([2]; 50 μm, (+) N-(2-hydroxyethyl)-palmitoleylamide (Example 19) (Table 7)): 24%; 3H-serotonin release inhibition (%) ([2]; 50 μm, (-) N-(2-hydroxyethyl)-palmitoleylamide (Table 7)): 76%; 3H-serotonin release inhibition (%) ([2]; 70 μm, (+) N-(2-hydroxyethyl)-palmitoleylamide (Example 19) (Table 7)): 30%; 3H-serotonin release inhibition (%) ([2]; 70 μm, (-) N-(2-hydroxyethyl)-palmitoleylamide (Table 7)): 96%; 3H-serotonin release inhibition (%) ([2]; 100 μm, (+) N-(2-hydroxyethyl)-palmitoleylamide (Example 19) (Table 7)): 56%; 3H-serotonin release inhibition (%) ([2]; 100 μm, (-) N-(2-hydroxyethyl)-palmitoleylamide (Table 7)): 98%; activity at 50 µM [2, 10]: 0%; IC50 [2, 14]: 6.4 µM; inhibition at 30 µM ([2]; Rattus norvegicus, RBL-2H3, read-out: 3H-serotonin net release inhibition (%), 30 μM, + anandamide (12.5 μM) (Table 4)): 36%; inhibition at 30 µM ([2]; Rattus norvegicus, RBL-2H3, read-out: 3H-serotonin net release inhibition (%), 30 μM, - anandamide (Table 4)): 100%; 3H-serotonin net release inhibition (%) ([2]; WIN 55,212-2 30 μm alone (DNP.HSA line, + WIN) (Table 6)): 69%; IC50 [2, 9]: 40 µM; functional effect following receptor activation (serotonin release) [2]: able to inhibit, in a concentration-dependent way, RBL cells immunogenic activation |
| CCCCCCCCCCCCCCCC(=O)N[C@H](CO)c1ccccc1 [Example 2, N-palmitoyl-[(S)-2-amino-2-phenylethanol]] | > 10000 | > 10000 | scarcely soluble | 1.8 | inhibition at 100 µM [2, 5]: 100%; inhibition at 100 µM [2, 6]: 100%; EC50 [2, 8]: 5 µM |
| CCCCCCCCCCCCCCCC(=O)NCc1ccc(O)c(OC)c1 [Example 21, N-(4-hydroxy-3-methoxybenzyl)-palmitoylamide] | > 10000 | > 10000 | scarcely soluble | 1.5 | – |
| CCCCCCCCCCCCCCCC(=O)N[C@@H](C)CO [Example 31, N-palmitoyl-[S(+)-2-amino-1-propanol]] | > 5000 | > 10000 | scarcely soluble | 7.7 | – |
| CCCCCc1cc(O)c2c(c1)OC(C)(C)[C@@H]1CC=C(C)C[C@@H]21 [Δ8-THC, Δ8-tetrahydrocannabinol, reference compound] | – | – | – | – | activity at 25 µM [2, 10]: 0%; IC50 [2, 14]: 5 µM; inhibition at 25 µM ([2]; Rattus norvegicus, RBL-2H3, read-out: 3H-serotonin net release inhibition (%), 25 μM, - anandamide (Table 4)): 100%; functional effect following receptor activation (serotonin release) [2]: able to inhibit, in a concentration-dependent way, RBL cells immunogenic activation |
| CCCCCCCCCCCCCCCC(=O)NCCOP(=O)(O)OCC(O)CO (stereo not shown) [Example 16, N-palmitoylethanolamine glycerophosphate] | > 10000 | – | scarcely soluble | – | solubility ([1]; phosphate buffer, pH 7.4, aqueous buffer): > 1000 µg/mL |
| CCCCCCCCCCCCCCCC(=O)N(C)CCO [Example 14, N-methyl-N-(2-hydroxyethyl)-palmitoylamide] | > 10000 | – | scarcely soluble | – | solubility [1, 11]: > 10000 µg/mL |
| CCCCC/C=C\C/C=C\C/C=C\C/C=C\CCCC(=O)O [arachidonic acid, reference compound] | – | – | – | – | inhibition at 12.5 µM [2, 12]: 59%; inhibition at 12.5 µM [2, 13]: 4% |

— patent publication US5990170A, “Therapeutic use of mono and bicarboxylic acid amides active at the peripheral cannabinoid receptor” (Lifegroup S.p.A., priority 1994, dated 1999)
